Data: US8883798B2, “Pyrimidine compounds inhibiting the formation of nitric oxide and prostaglandin E2, method of production thereof and use thereof” (Ustav Organicke Chemie a Biochemie Akademie Ved CR, V.V.I., priority 2011, dated 2014)

How the values were obtained:
[1] = tested on: production of prostaglandin E2 (PGE2); assay: Production of prostaglandin E2 (PGE2) in cultures of mouse peritoneal cells stimulated with LPS (ELISA kit); assay type: cell-based, mice; conditions: Table 3A, substance 50 μmol·l^−1, 6 h
How it was run: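 C57BL/6 mouse peritoneal cells (3×10^6/mL) stimulated with LPS (10 ng/mL). PGE2 measured by ELISA.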

[2] = tested on: Salmonella typhimurium TA 98 and TA 100, Escherichia coli WP2 uvrA; conditions: all strains, all tested concentrations, with and without metabolic activation
Procedure: With compound 28, its possible mutagenicity (genotoxicity) was assessed using the standard bacterial reverse mutation test. According to Council Regulation (ES) No. 440/2008, stipulating the test methods according to the European Parliament and Council regulation (ES), the method used was B.13/14, Mutagenicity—Reverse Mutation Test Using Bacteria, which is described in the same way also in the OECD Test Guideline No. 471.
[…] The experiments were conducted without using metabolic activation and after activation with supernatant S9 from […] livers and with mixtures of cofactors (NADP and glucoso-6-phosphate) to determine the mutagenicity of the metabolic products of the compound tested. Supernatant S9 was prepared according to the literature [Mutat. Res. 113, 173-215, 1983].
The principle of the test is to detect possible revertants created by reverse mutation, which would be induced in the bacterial culture by the tested compound. Specially constructed bacterial strains are used, carrying mutations in the place for his (trp), which are not capable of forming colonies on the minimum plates without histidine or tryptophan. […] Mutagenic potential is given by the growing number of revertants in the influenced groups in comparison with a negative control, and/or in dependence on the growing number of revertants on the dose of the tested compound.
Bacterial testers, types Salmonella typhimurium TA 98 (CCM 3811) and Escherichia coli WP2 uvrA (CCM 4751), were acquired from the Czech Collection of Microorganisms of Masaryk University, Brno and the strain Salmonella typhimurium TA100 (CIP 103796, lot No. 1008) from the Biological Resource Center, Institut Pasteur in Paris (CRBIP).

chronic colitis in mice = assay: Chronic murine colitis induced by dextran sulfate sodium; assay type: in vivo, mice (Balb/c); conditions: 10 mg/kg orally, daily for 15 days
Procedure: Chronic colitis was induced in mice (Balb/c) by dextran sulfate sodium (DSS), used as a 3% solution in drinking water. DSS treatment was applied intermittently on the three 5-day intervals, separated by the 9-day intervals (i.e. between the DSS cycles 1/2 and 2/3) during which the mice drunk normal water.
The test compounds were given orally, suspended in 0.5% methylcellulose. The dose was 10 mg/kg. The daily dosing started immediately after the second DSS interval and lasted to the end of the 3rd DSS interval, i.e. for the duration of 15 days. At this point, the animals were sacrificed and clinical signs of colitis were examined. Except of continuous monitoring the body weight, the following parameters were evaluated: a) colon length, b) disease activity index, and c) histological grade. Three compounds were included in this experiment: nos. 19, 51, and 28. 5-Aminosalycilic acid was used as a positive reference drug. The effects were compared to the group of mice receiving placebo (0.5% methylcellulose).

[3] = tested on: human peripheral blood lymphocytes; assay: Chromosomal aberration test in vitro; assay type: cell-based; conditions: 0.1, 0.2 and 0.5 mg/ml; with and without metabolic activation
Procedure: The clastogenicity potential of compound no. 28 was determined using chromosomal aberration test in vitro. The test was carried out in human peripheral blood lymphocytes both with and without metabolic activation system in two separate assays.
Three concentrations were selected for the test: 0.1, 0.2 and 0.5 mg/ml of final culture. Cells were arrested at metaphase by colchicine, harvested and slides were stained. Metaphase cells were analyzed microscopically for the presence of chromosomal aberrations. A total of 200 well-spread metaphases were examined per concentration on coded slides. Concurrent positive (thiotepa, cyclophosphamide) and negative (2% DMSO) controls were included in each experiment. […].

[4] = tested on: adjuvant arthritis in sewer rats; assay: Adjuvant arthritis in female Lewis sewer rats (Freund's complete adjuvant); assay type: in vivo, sewer rats of the inbred strain Lewis; conditions: 50 mg/kg orally, Day 9 to Day 16; versus methylcellulose group
[5] = tested on: human umbilical vein endothelial cells (HUVEC); assay: Tube formation assay of HUVEC on Matrigel (in vitro angiogenesis); assay type: cell-based; conditions: 8 h
Excerpt: This so called “Tube Formation Assay” is a method based on the ability of endothelial cells to form capillary-like tubular structures when cultured on Matrigel™ (a gel of basement membrane extract—their natural substrate). The process of capillary-like tube formation includes endothelial cell attachment, migration, and differentiation into tubules. In this experiment, treatment with tested compounds started at the time of seeding HUVEC onto Matrigel and the extent of tubule development was observed after an 8 h time period. Disruption of tube formation was then assessed through observation of the tubular network and direct comparison to solvent-only controls. The quantitative and qualitative measurement of tubular network complexity was performed using web-based S.CORE imaging software and expressed by means of number of tubes, their total length, quality, number of branching points, etc. All these parameters were integrated into “tube formation index” which corresponds to the degree of complexity of tubular network. […] At a 10 μmol/L concentration, compound 23 reduced tube formation by >90%. […] Apoptosis in HUVECs (at ˜70% confluency) treated with or without varying concentrations (relevant for the tube formation assay) of tested substances was assessed by a combination of Annexin V and JC-1 staining. After 8 h of these treatments, cells were collected, and the cell population undergoing apoptosis was identified by double-parameter flow cytometry using annexin V and the vital dye propidium iodide (PI). Mitochondrial membrane potential in treated endothelial cells was measured using the lypophilic probe JC-1, which aggregates in healthy mitochondria and fluoresces red, but diffuses in the cytoplasm and fluoresces green upon mitochondrial damage. In both cases, quantification of apoptotic cells were conducted in BD FACSDiva software.

Row | Structure (SMILES) | Production of prostaglandins in % of the controls [1] | Mutagenicity (reverse mutation) [2] | Clinical signs of chronic experimental colitis (chronic colitis in mice) | Colon length (inflammation in the gut) (chronic colitis in mice) | Effectiveness compared with 5-aminosalycilic acid (chronic colitis in mice) | Overall disease activity index (chronic colitis in mice) | Numerical and structural chromosome aberrations (clastogenicity) [3] | Severity of adjuvant arthritis (size of contralateral paws) [4] | Effect on tube formation ([5]; 10 μmol/L) | Incomplete tube formation ([5]; 25 μmol/L) | Capillary tube formation [5]
1 | CCCCc1c(Cl)nc(N)nc1Cl [Substance 28] | 13.14 ± 0.13 % of the controls | non-mutagenous | significantly lowers the clinical signs of chronic experimental colitis | protection against the shortening of colon | slightly more effective than the reference drug | lower than in the placebo group | did not induce an increase in numerical and structural chromosome aberrations | – | – | – | –
2 | CCCCc1c(Cl)nc(NC=O)nc1Cl [Substance 51] | 5.22 ± 2.66 % of the controls | non-mutagenous | – | – | – | – | – | distinctive (statistically significant) reduction of the severity of the illness | only limited effect | ~6% | inhibited capillary tube formation in a dose dependent manner
